We go through 13 molecules from patent US10611740B2, “Aryl dihydro-2H-benzo[b][1,4]oxazine sulfonamide and related compounds for use as agonists of RORγ and the treatment of disease” (Lycera Corporation, priority 2015, dated 2020).

The target of the first test is T1, Gal4-RORγ-LBD (Homo sapiens, UniProt P51449).
T1 construct: expressed in transfected cells; host or cells: HEK-293 cells (pcDNA3.1neo plasmid)
T1 sequence (P51449 269-508 limits assumed): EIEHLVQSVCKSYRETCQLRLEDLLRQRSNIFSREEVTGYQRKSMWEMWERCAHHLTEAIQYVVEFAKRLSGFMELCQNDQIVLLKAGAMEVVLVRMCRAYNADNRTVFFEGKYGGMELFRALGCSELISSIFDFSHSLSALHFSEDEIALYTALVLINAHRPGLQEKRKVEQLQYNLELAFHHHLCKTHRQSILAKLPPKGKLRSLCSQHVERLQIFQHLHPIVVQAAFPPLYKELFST
Briefly: Gal4-RORγ Luciferase Reporter Assay in HEK-293T Cells. Type of test: cell-based. The settings on record: HEK-293 cells, 2 μM ursolic acid. How it is done:
Assay procedures and results are described below.
In the following protocol, HEK-293 cells were transfected with a construct comprising the Gal4 DNA binding domain fused to the ligand binding domain of RORγ (Gal4-RORγ-LBD) in a pcDNA3.1neo plasmid, and also with a reporter construct comprising pGL4.31 Gal4-luciferase (Promega). Control cells were prepared similarly using empty pcDNA3.1neo and pGL4.31 vectors.
Trans-IT reagent (Mirus, 60 μL) at room temperature was added drop wise to OptiMEM (Invitrogen, 1.5 ml). This reagent mixture was mixed by inversion then incubated for 5 to 30 minutes at room temperature. It then was added to a solution of both expression vectors (5 μg each), mixed, and incubated at room temperature for about 20 minutes. HEK-293 cells were harvested from incubation flasks by removing the media, treating with TrypLE Express (Invitrogen), and incubating until the cells detached from the bottom of the flask (approximately 2-5 minutes). 10 Million cells were collected by centrifugation and re-suspended in 10 mL of Dulbecco's Modified Eagle Medium, High Glucose (DMEM, Invitrogen) containing 10% Fetal Bovine Serum and 100 IU each of penicillin and streptomycin. The re-suspended cells and the transfection mixture were added to a T75 flask, mixed and incubated overnight at 37° C. and 5% CO2.
The cells were harvested as described above, counted, and centrifuged to obtain the desired number of cells, then re-suspended in complete growth media at 0.75×10^6 cells/mL. The RORγ antagonist, ursolic acid, was added to the cells at a final concentration of 2 μM. Cells were plated at 20 μL of cell suspension/well (10,000-15,000 cells/well) in white tissue culture treated 384 well plates. Test compounds were dissolved at 10 mM in DMSO then diluted into complete growth medium to 5× the final intended test concentration. These drug stock solutions, 5 μL/well were added to the tissue culture plate. The final DMSO concentration was 0.2%. The plates were briefly centrifuged then incubated overnight at 37° C. and 5% CO2. To conduct the assay, the tissue culture plates were allowed to equilibrate to room temperature and One-Glo luciferase reagent (Promega, 25 μL/well) was added. The plates were briefly centrifuged then incubated at room temperature for 10 minutes. The luciferase intensity was read on an Envision plate reader (Perkin Elmer). […] The luciferase signal in the absence of ursolic acid or test compound is defined at 100. The Max Response is the upper plateau in the signal as determined by line-fit using a 4-parameter logistic model in PRISM (GraphPad).
(In general: A reporter such as luciferase makes a cellular process visible.)
As a reminder, the EC50 is the concentration needed to bring the measured effect to its halfway point. Low readings indicate a more potent agent, high ones a less potent agent. On to `O=C(O)[C@]1(C[C@H]2CN(S(=O)(=O)c3cccc(C(F)(F)F)c3)c3cc(-c4cc(F)cc(OC(F)F)c4)ccc3O2)C[C@H](O)C1` [Compound 67, (1s,3S)-1-(((S)-6-(3-(difluoromethoxy)-5-fluorophenyl)-4-((3-(trifluoromethyl)phenyl)sulfonyl)-3,4-dihydro-2H-benzo[b][1,4]oxazin-2-yl)methyl)-3-hydroxycyclobutane-1-carboxylic acid], for which the EC50 was less than 500 nM and the “Gal4-RORγ Assay Max Response” value is on record as “** (The symbol “**” indicates a value in the range of greater than 90 to 150)”.

The molecule `COc1cc(S(=O)(=O)N2C[C@H](CNS(=O)(=O)N3CCCC3)Oc3ccc(-c4cc(F)ccc4F)cc32)ccc1F` [Compound 45F, (S)-N-((6-(2,5-difluorophenyl)-4-((4-fluoro-3-methoxyphenyl)sulfonyl)-3,4-dihydro-2H-benzo[b][1,4]oxazin-2-yl)methyl)pyrrolidine-1-sulfonamide] gave an EC50 of less than 500 nM.

For the molecule `O=C(O)[C@]1(C[C@H]2CN(S(=O)(=O)c3cccc(C(F)(F)F)c3)c3cc(-c4cc(F)cc(OC(F)F)c4)ccc3O2)C[C@](O)(CO)C1` [Compound 87, (1r,3R)-1-(((S)-6-(3-(difluoromethoxy)-5-fluorophenyl)-4-((3-(trifluoromethyl)phenyl)sulfonyl)-3,4-dihydro-2H-benzo[b][1,4]oxazin-2-yl)methyl)-3-hydroxy-3-(hydroxymethyl)cyclobutane-1-carboxylic acid], the EC50 lay within 500 to 5000 nM and the “Gal4-RORγ Assay Max Response” value is on record as “** (The symbol “**” indicates a value in the range of greater than 90 to 150)”.

Consider `O=C(O)C1(C[C@H]2CN(S(=O)(=O)c3cccc(C(F)(F)F)c3)c3cc(-c4cccc(OC(F)(F)F)c4)ccc3O2)CCOCC1` [Compound 78K, (S)-4-((6-(3-(trifluoromethoxy)-phenyl)-4-((3-(trifluoromethyl)-phenyl)sulfonyl)-3,4-dihydro-2H-benzo[b][1.4]oxazin-2-yl)methyl)tetrahydro-2H-pyran-4-carboxylic acid], for which the EC50 was less than 500 nM and the “Gal4-RORγ Assay Max Response” value is “** (The symbol “**” indicates a value in the range of greater than 90 to 150)”.

Regarding `O=C(O)C1(C[C@H]2CN(S(=O)(=O)c3cccc(C(F)F)c3)c3cc(-c4cc(F)cc(OC(F)F)c4)ccc3O2)COC1` [Compound 51J, (S)-3-((6-(3-(difluoromethoxy)-5-fluorophenyl)-4-((3-(difluoro-methyl)phenyl)sulfonyl)-3,4-dihydro-2H-benzo[b][1,4]oxazin-2-yl)methyl)oxetane-3-carboxylic acid], the half-maximal effective concentration (EC50) is less than 500 nM and the “Gal4-RORγ Assay Max Response” value was “** (The symbol “**” indicates a value in the range of greater than 90 to 150)”.

With `CC(C)(O[C@@H]1Cc2ccc(-c3cc(F)ccc3F)cc2N(S(=O)(=O)c2cccc(C(F)(F)F)c2)C1)C(=O)O` [Compound 83B, (R)-2-((7-(2,5-difluorophenyl)-1-((3-(trifluoromethyl)phenyl)sulfonyl)-1,2,3,4-tetrahydroquinolin-3-yl)oxy)-2-methylpropanoic acid], the EC50 lay in the range of 500 to 5000 nM and the “Gal4-RORγ Assay Max Response” value is listed as “** (The symbol “**” indicates a value in the range of greater than 90 to 150)”.

For `O=C(O)C1(C[C@H]2CN(S(=O)(=O)c3cccc(C(F)(F)F)c3)c3cc(-c4cc(F)cc(C(F)(F)F)c4)ccc3O2)CCOCC1` [Compound 78O, (S)-4-((6-(3-fluoro-5-(trifluoro-methyl)phenyl)-4-((3-(trifluoro-methyl)phenyl)sulfonyl)-3,4-dihydro-2H-benzo[b][1,4]oxazin-2-yl)methyl)tetrahydro-2H-pyran-4-carboxylic acid], the EC50 was less than 500 nM and the “Gal4-RORγ Assay Max Response” value was “** (The symbol “**” indicates a value in the range of greater than 90 to 150)”.

`O=C(O)C1(C[C@H]2CN(S(=O)(=O)c3cc(F)cc(C(F)(F)F)c3)c3cc(-c4cc(F)ccc4F)ccc3O2)COC1` [Compound 51G, (S)-3-((6-(2,5-difluorophenyl)-4-((3-fluoro-5-(trifluoromethyl)-phenyl)sulfonyl)-3,4-dihydro-2H-benzo[b][1,4]oxazin-2-yl)methyl)oxetane-3-carboxylic acid]: the EC50 was less than 500 nM and the “Gal4-RORγ Assay Max Response” value is given as “** (The symbol “**” indicates a value in the range of greater than 90 to 150)”.

With `CC(=O)N[C@H]1C[C@H]([C@H]2CN(S(=O)(=O)c3cccc(C(F)(F)F)c3)c3cc(-c4cc(F)ccc4F)ccc3O2)C1` [Compound 60M, N-((1S,3r)-3-((S)-6-(2,5-difluorophenyl)-4-((3-(trifluoro-methyl)phenyl)sulfonyl)-3,4-dihydro-2H-benzo[b][1,4]-oxazin-2-yl)cyclobutyl)-acetamide], the 50% effective concentration (EC50) was less than 500 nM and the “Gal4-RORγ Assay Max Response” value is reported as “** (The symbol “**” indicates a value in the range of greater than 90 to 150)”.

On to `COc1cc(Cl)cc(-c2ccc3c(c2)N(S(=O)(=O)c2cccc(C(F)(F)F)c2)C[C@H](CC2(C(=O)O)CCOCC2)O3)c1` [Compound 78L, (S)-4-((6-(3-chloro-5-methoxy-phenyl)-4-((3-(trifluoromethyl)-phenyl)sulfonyl)-3,4-dihydro-2H-benzo[b][1,4]oxazin-2-yl)methyl)tetrahydro-2H-pyran-4-carboxylic acid], for which the 50% effective concentration (EC50) was less than 500 nM and the “Gal4-RORγ Assay Max Response” value was “** (The symbol “**” indicates a value in the range of greater than 90 to 150)”.

Turning to `O=C(O)CO[C@@H]1Cc2ccc(-c3cc(F)cc(OC(F)F)c3)cc2N(S(=O)(=O)c2cccc(C(F)(F)F)c2)C1` [Compound 83E, (R)-2-((7-(3-(difluoromethoxy)-5-fluorophenyl)-1-((3-(trifluoro-methyl)phenyl)sulfonyl)-1,2,3,4-tetrahydroquinolin-3-yl)oxy)acetic acid], the EC50 fell in the range of 500 to 5000 nM and the “Gal4-RORγ Assay Max Response” value is on record as “* (The symbol “*” indicates a value in the range of 25 to 90)”.

`O=C(O)C1(C[C@H]2CN(S(=O)(=O)c3cc(F)cc(C(F)(F)F)c3)c3cc(-c4cc(F)cc(OC(F)F)c4)ccc3O2)COC1` [Compound 51I, (S)-3-((6-(3-(difluoromethoxy)-5-fluorophenyl)-4-((3-fluoro-5-(trifluoromethyl)phenyl)sulfonyl)-3,4-dihydro-2H-benzo[b][1,4]-oxazin-2-yl)methyl)oxetane-3-carboxylic acid]: the EC50 is less than 500 nM and the “Gal4-RORγ Assay Max Response” value is recorded as “* (The symbol “*” indicates a value in the range of 25 to 90)”.

The same test, now with this note: HEK-293 cells, luciferase reporter, with 2 μM ursolic acid.
Regarding `COc1ccnc(-c2ccc3c(c2)N(S(=O)(=O)c2cccc(C(F)(F)F)c2)C[C@H](CCC(=O)O)O3)n1` [Compound 4C, (S)-3-(6-(4-methoxypyrimidin-2-yl)-4-((3-(trifluoromethyl)-phenyl)sulfonyl)-3,4-dihydro-2H-benzo[b][1,4]oxazin-2-yl)propanoic acid], the half-maximal effective concentration (EC50) is 500 to 5000 nM and the “Gal4-RORγ Assay Max Response” value is on record as “** (The symbol “**” indicates a value in the range of greater than 90 to 150)”.
